From patent US20250346593A1, “IMIDAZO(1,2-1)PYRIDINE DERIVATIVES AS RIPK2 INHIBITORS” (Interline Therapeutics, Inc., priority 2022, published 2025)
Where two headings read alike, the source gives them in different places.

Key:
[1] = system: NF-κB pathway (SEAP) in THP1-Dual cells; test: THP-1 Dual cell SEAP assay (L18-MDP stimulated); format: cell-based; details: Homo sapiens, THP1-Dual, read-out: NFkB THP1 IC50
[2] = biological target: GST-RIPK2 fusion protein (human RIPK2 amino acids 1-310) (Homo sapiens (Human), UniProt O43353); test: RIPK2 binding competition assay (TR-FRET, Tracer 199)
[3] = read-out: RIPK2 IC50, RIPK2 binding competition assay

GST-RIPK2 fusion protein (human RIPK2 amino acids 1-310), sequence (O43353 1-310): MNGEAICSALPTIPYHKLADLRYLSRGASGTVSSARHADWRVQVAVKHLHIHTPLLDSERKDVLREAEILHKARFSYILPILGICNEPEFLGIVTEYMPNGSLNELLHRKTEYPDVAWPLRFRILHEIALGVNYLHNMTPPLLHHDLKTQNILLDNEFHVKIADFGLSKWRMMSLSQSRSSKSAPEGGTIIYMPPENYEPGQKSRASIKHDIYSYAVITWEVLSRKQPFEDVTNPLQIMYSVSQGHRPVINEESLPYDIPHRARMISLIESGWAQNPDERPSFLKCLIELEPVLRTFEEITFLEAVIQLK

Row | SMILES | IC50 [1] [nM] | IC50 [2] [nM] | IC50 [2, 3] [nM]
1 | CCCS(=O)(=O)Nc1cc(-c2cnc3cc(OC)c(S(=O)(=O)C(C)(C)C)cn23)cc(F)c1C [Example 262, N-(5-(6-(tert-butylsulfonyl)-7-methoxyimidazo[1,2-a]pyridin-3-yl)-3-fluoro-2-methylphenyl)propane-1-sulfonamide] | 250 to 1000 | 2.5 to 20 | 
2 | COc1cc2ncc(-c3cc(F)nc(NCCO)c3)n2cc1S(=O)(=O)C(C)(C)C [Example 202, 2-((4-(6-(tert-butylsulfonyl)-7-methoxyimidazo[1,2-a]pyridin-3-yl)-6-fluoropyridin-2-yl)amino)ethan-1-ol] | < 50 | 1 to 2.5 | 
3 | CCCS(=O)(=O)Nc1c(OC)ccc(-c2cnc3cc(OC)c(S(=O)(=O)C(C)(C)C)cn23)c1F [Example 257, N-(3-(6-(tert-butylsulfonyl)-7-methoxyimidazo[1,2-a]pyridin-3-yl)-2-fluoro-6-methoxyphenyl)propane-1-sulfonamide] | > 1000 |  | > 20
4 | COc1cc2ncc(-c3cc(F)nc(NCC(C)(C)O)c3)n2cc1S(=O)(=O)C(C)(C)C [Example 224, 1-({6-fluoro-4-[7-methoxy-6-(2-methylpropane-2-sulfonyl)imidazo[1,2-a]pyridin-3-yl]pyridin-2-yl}amino)-2-methylpropan-2-ol] | < 50 | 1 to 2.5 | 
5 | COc1cc2ncc(-c3cc(F)nc(NCC(F)(F)CO)c3)n2cc1S(=O)(=O)C(C)(C)C [Example 228, 2,2-difluoro-3-({6-fluoro-4-[7-methoxy-6-(2-methylpropane-2-sulfonyl)imidazo[1,2-a]pyridin-3-yl]pyridin-2-yl}amino)propan-1-ol] | < 50 |  | < 1
6 | COc1cc2ncc(-c3cc(F)c(OC)c(Br)c3)n2cc1S(=O)(=O)C(C)(C)C [Example 305, 3-(3-bromo-5-fluoro-4-methoxyphenyl)-6-(tert-butylsulfonyl)-7-methoxyimidazo[1,2-a]pyridine] | > 1000 | 2.5 to 20 | 
7 | COc1cc2ncc(-c3cnc(N)c(C4CC4)c3)n2cc1S(=O)(=O)C(C)(C)C [Example 84, 5-(6-(tert-butylsulfonyl)-7-methoxyimidazo[1,2-a]pyridin-3-yl)-3-cyclopropylpyridin-2-amine] | > 1000 |  | > 20
8 | COc1cc2ncc(-c3cc(F)c(OC)c(OC)c3)n2cc1S(=O)(=O)C(C)(C)C [Example 58, 6-(tert-butylsulfonyl)-3-(3-fluoro-4,5-dimethoxyphenyl)-7-methoxyimidazo[1,2-a]pyridine] | > 1000 | 2.5 to 20 | 
9 | COc1cc(NCCCO)cc(-c2cnc3cc(OC)c(S(=O)(=O)C(C)(C)C)cn23)n1 [compound 321, 3-((2-(6-(tert-butylsulfonyl)-7-methoxyimidazo[1,2-a]pyridin-3-yl)-6-methoxypyridin-4-yl)amino)propan-1-ol] | > 1000 |  | > 20
10 | CNc1cc(-c2cnc3cc(OC)c(S(=O)(=O)C(C)(C)C)cn23)cc(F)n1 [Example 179, 4-(6-(tert-butylsulfonyl)-7-methoxyimidazo[1,2-a]pyridin-3-yl)-6-fluoro-N-methylpyridin-2-amine] | < 50 |  | < 1
11 | CC(C)(C)S(=O)(=O)c1ccn2ncc(-c3ccc(F)nc3N)c2c1 [Example 299, 3-(5-(tert-butylsulfonyl)pyrazolo[1,5-a]pyridin-3-yl)-6-fluoropyridin-2-amine] | > 1000 | > 20 | 
12 | CCCS(=O)(=O)Nc1cccc(-c2cnc3cc(OC)c(S(=O)(=O)C(C)(C)C)cn23)c1F [Example 258, N-(3-(6-(tert-butylsulfonyl)-7-methoxyimidazo[1,2-a]pyridin-3-yl)-2-fluorophenyl)propane-1-sulfonamide] | > 1000 |  | > 20
13 | CCCS(=O)(=O)Nc1cc(-c2cnc3cc(OC)c(C(C)(C)O)cn23)cc(F)c1OC [Example 146, N-(3-fluoro-5-(6-(2-hydroxypropan-2-yl)-7-methoxyimidazo[1,2-a]pyridin-3-yl)-2-methoxyphenyl)propane-1-sulfonamide] | 50 to 250 | 1 to 2.5 | 
14 | COc1cc2ncc(-c3cc(F)c(OC)c(NS(=O)(=O)CC(C)C)c3)n2cc1S(=O)(=O)C(C)(C)C [Example 279, N-(5-(6-(tert-butylsulfonyl)-7-methoxyimidazo[1,2-a]pyridin-3-yl)-3-fluoro-2-methoxyphenyl)-2-methylpropane-1-sulfonamide] | < 50 | < 1 | 
15 | COc1cc2ncc(-c3cc(C)c(OC)c(NCCCO)c3)n2cc1S(=O)(=O)C(C)(C)C [Example 322, 3-((5-(6-(tert-butylsulfonyl)-7-methoxyimidazo[1,2-a]pyridin-3-yl)-2-methoxy-3-methylphenyl)amino)propan-1-ol] | > 1000 | 2.5 to 20 | 
16 | COc1cc(N)cc(-c2cnc3cc(OC)c(S(=O)(=O)C(C)(C)C)cn23)n1 [Example 126, 2-(6-(tert-butylsulfonyl)-7-methoxyimidazo[1,2-a]pyridin-3-yl)-6-methoxypyridin-4-amine] | > 1000 |  | > 20

Row | SMILES | IC50 [1] [nM] | IC50 [2] [nM] | IC50 [2, 3] [nM]
17 | COc1cc2ncc(-c3cc(F)nc(NC4CCC4)c3)n2cc1S(=O)(=O)C(C)(C)C [Example 180, 4-(6-(tert-butylsulfonyl)-7-methoxyimidazo[1,2-a]pyridin-3-yl)-N-cyclobutyl-6-fluoropyridin-2-amine] | 50 to 250 |  | < 1
18 | COc1cc2ncc(-c3cc(F)nc(F)c3)n2cc1S(=N)(=O)C(C)(C)C (stereo not shown) [Example 315, tert-butyl(3-(2,6-difluoropyridin-4-yl)-7-methoxyimidazo[1,2-a]pyridin-6-yl)(imino)-λ^6-sulfanone] | > 1000 |  | > 20
19 | COc1cc2ncc(-c3cccc(S(N)(=O)=O)c3)n2cc1S(=O)(=O)C(C)(C)C [Example 153, 3-(6-(tert-butylsulfonyl)-7-methoxyimidazo[1,2-a]pyridin-3-yl)benzenesulfonamide] | > 1000 |  | > 20
20 | CCCS(=O)(=O)Nc1c(F)ccc(-c2cnc3cc(OC)c(S(=O)(=O)C(C)(C)C)cn23)c1F [Example 255, N-(3-(6-(tert-butylsulfonyl)-7-methoxyimidazo[1,2-a]pyridin-3-yl)-2,6-difluorophenyl)propane-1-sulfonamide] | > 1000 | > 20 | 
21 | COc1cc2ncc(-c3cc(F)cc(N)c3F)n2cc1S(=O)(=O)C(C)(C)C [Example 38, 3-(6-(tert-butylsulfonyl)-7-methoxyimidazo[1,2-a]pyridin-3-yl)-2,5-difluoroaniline] | 50 to 250 | 1 to 2.5 | 
22 | CCOc1c(N)cc(-c2cnc3cc(OC)c(S(=O)(=O)C(C)(C)C)cn23)cc1F [Example 66, 5-(6-(tert-butylsulfonyl)-7-methoxyimidazo[1,2-a]pyridin-3-yl)-2-ethoxy-3-fluoroaniline] | > 1000 |  | > 20
23 | COc1cc2ncc(-c3cc(F)nc(NCC4CCNC(=O)C4)c3)n2cc1S(=O)(=O)C(C)(C)C (stereo not shown) [Example 188, 4-(((4-(6-(tert-butylsulfonyl)-7-methoxyimidazo[1,2-a]pyridin-3-yl)-6-fluoropyridin-2-yl)amino)methyl) piperidin-2-one] | < 50 |  | < 1
24 | COc1cc2ncc(-c3cc(N)c(F)c(F)c3)n2cc1S(=O)(=O)C(C)(C)C [Example 44, 5-(6-(tert-butylsulfonyl)-7-methoxyimidazo[1,2-a]pyridin-3-yl)-2,3-difluoroaniline] | 50 to 250 | 2.5 to 20 | 
25 | COc1cc2ncc(-c3cc(NCCCO)ncc3F)n2cc1S(=O)(=O)C(C)(C)C [Example 310, 3-((4-(6-(tert-butylsulfonyl)-7-methoxyimidazo[1,2-a]pyridin-3-yl)-5-fluoropyridin-2-yl)amino)propan-1-ol] | > 1000 |  | > 20
26 | COc1cc2ncc(-c3cc(F)c(OCc4ccccc4)c(NS(C)(=O)=O)c3)n2cc1S(=O)(=O)C(C)(C)C [Example 147, N-(2-(benzyloxy)-5-(6-(tert-butylsulfonyl)-7-methoxyimidazo[1,2-a]pyridin-3-yl)-3-fluorophenyl) methanesulfonamide] | > 1000 | > 20 | 
27 | COc1cc2ncc(-c3cc(F)nc(NC(C)(C)CO)c3)n2cc1S(=O)(=O)C(C)(C)C [Example 237, 2-({6-fluoro-4-[7-methoxy-6-(2-methylpropane-2-sulfonyl)imidazo[1,2-a]pyridin-3-yl]pyridin-2-yl}amino)-2-methylpropan-1-ol] | 50 to 250 | 2.5 to 20 | 
28 | COc1cn2ncc(-c3ccc(N)nc3F)c2cc1S(=O)(=O)C(C)(C)C [Example 72, 5-(5-(tert-butylsulfonyl)-6-methoxypyrazolo[1,5-a]pyridin-3-yl)-6-fluoropyridin-2-amine] | > 1000 |  | > 20
29 | COc1cc2ncc(-c3cnc(OC)c(N)c3)n2cc1S(=O)(=O)C(C)(C)C [Example 54, 5-(6-(tert-butylsulfonyl)-7-methoxyimidazo[1,2-a]pyridin-3-yl)-2-methoxypyridin-3-amine] | > 1000 |  | > 20
30 | COc1cc2ncc(-c3cc(F)nc(N[C@@H]4CC[C@@H](O)C4)c3)n2cc1S(=O)(=O)C(C)(C)C (racemic) [Example 197, rac-(1R,3R)-3-((4-(6-(tert-butylsulfonyl)-7-methoxyimidazo[1,2-a]pyridin-3-yl)-6-fluoropyridin-2-yl)amino)cyclopentan-1-ol] | < 50 | 1 to 2.5 | 
31 | CCCS(=O)(=O)Nc1cc(C#N)cc(-c2cnc3cc(OC)c(S(=O)(=O)C(C)(C)C)cn23)c1 [Example 282, N-(3-(6-(tert-butylsulfonyl)-7-methoxyimidazo[1,2-a]pyridin-3-yl)-5-cyanophenyl)propane-1-sulfonamide] | > 1000 | 2.5 to 20 | 
32 | COc1cc2ncc(-c3ccc(N)cn3)n2cc1S(=O)(=O)C(C)(C)C [Example 71, 6-(6-(tert-butylsulfonyl)-7-methoxyimidazo[1,2-a]pyridin-3-yl)pyridin-3-amine] | > 1000 |  | > 20
